Results taken from US11793787B2, “Methods and compositions for enhancing anti-tumor immunity by targeting steroidogenesis” (The Broad Institute, Inc., priority 2019, dated 2023).
“And” between values parts separate entries of the source, which are not always exact repeats. Equal values may be shown once. “Also recorded” adds a separate entry of the source.

Key:
[1] = system: CD8+ T cells; assay: RNA-Seq of naive CD8+ T cells cultured with Dex (GC), IL-27 or GC+IL-27 (Tables 1, 2A, 2B, 3, 5-8); format: cell-based, mouse
[2] = system: MC38-Ova dim colon carcinoma; assay: Intra-tumoral corticosterone in LysMCre+ Cyp11a1fl/fl mice bearing MC38-Ova dim, tumor progression; format: in vivo, mouse; conditions: intra-tumoral corticosterone 2.5 mg/kg, Days 5, 6, 7 and 9
Experimental: Tumor experiments. Tumor size was measured in two dimensions by caliper and is expressed as the product of two perpendicular diameters. […] Mice were then monitored for tumor growth. […] In vivo and in vitro modulation of glucocorticoid synthesis. MC38-Ova^dim was implanted in wild type C57BL/6 mice and either Metyrapone (50 mg/kg; Fisher Scientific), Corticosterone (2.5 mg/kg) or vehicle control PBS (Gibco) was administered intra-tumorally on Day 5, 6, 7 and 9 post-tumor implantation.

[3] = system: CD8+ TILs; assay: Flow cytometry of CD8+ TILs from Metyrapone-treated tumor-bearing mice; format: in vivo, mouse; conditions: intra-tumoral Metyrapone, early stage of tumor progression
Experimental: Isolation of TILs. TILs were isolated by dissociating tumor tissue in the presence of collagenase D (2.5 mg/ml) for 20 minutes prior to centrifugation on a discontinuous Percoll gradient (GE Healthcare). Isolated cells were then used in various assays. Flow cytometry. […] Antigen specific […] […] In vivo and in vitro modulation of glucocorticoid synthesis. MC38-Ova^dim was implanted in wild type C57BL/6 mice and either Metyrapone (50 mg/kg; Fisher Scientific), Corticosterone (2.5 mg/kg) or vehicle control PBS (Gibco) was administered intra-tumorally on Day 5, 6, 7 and 9 post-tumor implantation. In some experiments, MC38-Ova^dim tumor explants or sorted lin^-CD45^+CD24^- cells were cultured in the presence or absence of Metyrapone (25 or 50 ng/ml) for 24 hrs. Supernatants were harvested and corticosterone measured by ELISA (Arbor Assays).

[4] = system: MC38-Ova tumor explants; assay: MC38-Ova tumor explants cultured with Metyrapone, corticosterone ELISA; format: cell-based, mouse; conditions: 24 hrs, Metyrapone 25 or 50 ng/ml
Experimental: (§1) In vivo and in vitro modulation of glucocorticoid synthesis. MC38-Ova^dim was implanted in wild type C57BL/6 mice and either Metyrapone (50 mg/kg; Fisher Scientific), Corticosterone (2.5 mg/kg) or vehicle control PBS (Gibco) was administered intra-tumorally on Day 5, 6, 7 and 9 post-tumor implantation. In some experiments, MC38-Ova^dim tumor explants or sorted lin^−CD45^+CD24^− cells were cultured in the presence or absence of Metyrapone (25 or 50 ng/ml) for 24 hrs. Supernatants were harvested and corticosterone measured by ELISA (Arbor Assays).

[5] = system: Lin-CD45+CD24- monocyte/macrophages from MC38-Ova tumors; assay: Tumor-associated monocyte/macrophages cultured with Metyrapone, corticosterone ELISA; format: cell-based, mouse; conditions: 24 hrs culture ex vivo
Experimental: as §1

[6] = system: MC38-Ova colon carcinoma; assay: Intra-tumoral Metyrapone in MC38-Ova tumor-bearing mice, tumor growth; format: in vivo, mouse; conditions: 50 mg/kg, Days 5, 6, 7 and 9
Description: Tumor cell lines used. MC38-Ova^dim was generously provided by Mark Smyth. B16F10 was purchased from ATCC. MC38 was generously provided by Carla Rothlin. MC38-Ova^dim-GFP was generated in Applicants lab as follows, HEK293T cells were transfected with pLenti PGK GFP Puro plasmid. The resulting Lentivirus was then used to infect Mc38Ova^dim cell line to generate a GFP expressing cell line. MC38-Ova^dim (0.5×10^6) or B16F10 (0.25×10^6) and MC38-Ova^dim-GFP (0.5×10^6) cells were implanted subcutaneously into the right flank of mice.
Tumor experiments. Tumor size was measured in two dimensions by caliper and is expressed as the product of two perpendicular diameters. In some experiments, mice were treated with anti-PD-1 (RMP1-14) ([…]) antibodies or control immunoglobulin (Rat IgG2a) i.p. on days 5, 8 and 11 post-tumor implantation. Mice were then monitored for tumor growth. […] Antibodies were administered bi-weekly for a total of 5 treatments (n=9-10).
as §1, with “In some experiments, MC38-Ova^dim tumor explants or sorted lin^−CD45^+CD24^− cells were cultured in the presence or absence of Metyrapone (25 or 50 ng/ml) for 24 hrs.” left out

[7] = system: CD8+ T cells; assay: Quantitative RT-PCR of Prdm1, Nfil3 and Tcf7 in GC, IL-27 or GC+IL-27 treated CD8+ T cells; format: cell-based, mouse; conditions: qPCR
Experimental: Cell culture and treatment with glucocorticoid.
Quantitative PCR. Total RNA was extracted using RNeasy columns (Qiagen) or PicoPure™ RNA Isolation Kit (Thermo Fischer). Reverse transcription of mRNA was performed in a thermal cycler (Bio-Rad) using iScript cDNA Synthesis Kit (Bio-Rad) or SuperScript™ VILO™ cDNA Synthesis Kit (Thermo Fischer). qPCR was performed in the Vii7 Real-Time PCR system (Applied Biosystems) using the primers for Taqman gene expression (Applied Biosystems). Data were normalized to the expression of Actb.

[8] = treated CD8+ T cells, three values per condition, listed as Dex
[9] = treated CD8+ T cells, three values per condition

## C[C@@H]1C[C@H]2[C@@H]3CCC4=CC(=O)C=C[C@]4(C)[C@@]3(F)[C@@H](O)C[C@]2(C)[C@@]1(O)C(=O)CO [dexamethasone]
[1]; GC versus vehicle control, Table 8
  number of GC-induced genes overlapping with the T cell dysfunction signature: 463
[1]; [8]
  1124 expression levels: 156.6 and 224.35 and 191
  CD28 expression levels: 31.98 and 33.89 and 35.83
  Lilrb4 expression levels: 179.28 and 174.41 and 160.09
  Nupr1 expression levels: 11.81 and 14.26 and 21.7
  Tcf7 expression levels: 9.54 and 8.42 and 8.72
  Tgfb3 expression levels: 8.53 and 5.51 and 5.9

## C[C@]12C[C@H](O)[C@H]3[C@@H](CCC4=CC(=O)CC[C@@]43C)[C@@H]1CC[C@@H]2C(=O)CO [corticosterone]
[2]
  control of tumor progression in LysMCre+ Cyp11a1fl/fl mice: abrogated

## CC(C)(C(=O)c1cccnc1)c1cccnc1 [Metyrapone]
[3]
  functional properties of CD8+ TILs compared with loss of GR in CD8+ T cells: resembled that of CD8^+ TILs from E8i-Cre^+ Nr3c1^fl/fl mice and LysM-Cre^+ Cyp11a1^fl/fl mice
[3]; listed as metyrapone
  functional properties of CD8+ TILs compared with loss of GR in CD8+ T cells: phenocopies CD8 GR cKO
[4]
  level of corticosterone in tumor explant supernatants: reduced and less
[5]
  corticosterone production by tumor-associated monocyte/macrophages: dramatically reduced; also recorded: significantly inhibited
[6]
  tumor growth: dramatic tumor growth inhibition

B1: IL-27: heterodimeric cytokine of the IL-12 family composed of EBI3 and IL-27p28 (protein, UniProt Q14213 21-229; Q8NEV9 29-243, looked up)
Interleukin-27 subunit beta: RKGPPAALTLPRVQCRASRYPIAVDCSWTLPPAPNSTSPVSFIATYRLGMAARGHSWPCLQQTPTSTSCTITDVQLFSMAPYVLNVTAVHPWGSSSSFVPFITEHIIKPDPPEGVRLSPLAERQLQVQWEPPGSWPFPEIFSLKYWIRYKRQGAARFHRVGPIEATSFILRAVRPRARYYVQVAAQDLTDYGELSDWSLPATATMSLGK
Interleukin-27 subunit alpha: FPRPPGRPQLSLQELRREFTVSLHLARKLLSEVRGQAHRFAESHLPGVNLYLLPLGEQLPDVSLTFQAWRRLSDPERLCFISTTLQPFHALLGGLGTQGRWTNMERMQLWAMRLDLRDLQRHLRFQVLAAGFNLPEEEEEEEEEEEEERKGLLPGALGSALQGPAQVSWPQLLSTYRLLHSLELVLSRAVRELLLLSKAGHSVWPLGFPTLSPQP
[1]; [9]
  CD28 expression levels: 48.93 and 37.2 and 39.84
  Lilrb4 expression levels: 73.62 and 94.25 and 105.87
  Nupr1 expression levels: 11.93 and 21.86 and 19.79
  Tcf7 expression levels: 5.37 and 7.39 and 5.57
[7]
  Tcf7 expression: dramatically reduced
